Test results published in ChEMBL document CHEMBL1142746, “Triaryl bis-sulfones as cannabinoid-2 receptor ligands: SAR studies” (Bioorg Med Chem Lett, 2005).

How the values were obtained:
[1] = molecular target: Cannabinoid receptor (Homo sapiens) (UniProt P34972+P21554); experiment: Ratio of inhibition against Cannabinoid receptor 1 and Cannabinoid receptor 2; type: protein assay
Cannabinoid receptor 2 = Cannabinoid receptor 2 (Homo sapiens, UniProt P34972); experiment: Inhibition constant against Cannabinoid receptor 2
Sequence of Cannabinoid receptor 2 (P34972 whole entry): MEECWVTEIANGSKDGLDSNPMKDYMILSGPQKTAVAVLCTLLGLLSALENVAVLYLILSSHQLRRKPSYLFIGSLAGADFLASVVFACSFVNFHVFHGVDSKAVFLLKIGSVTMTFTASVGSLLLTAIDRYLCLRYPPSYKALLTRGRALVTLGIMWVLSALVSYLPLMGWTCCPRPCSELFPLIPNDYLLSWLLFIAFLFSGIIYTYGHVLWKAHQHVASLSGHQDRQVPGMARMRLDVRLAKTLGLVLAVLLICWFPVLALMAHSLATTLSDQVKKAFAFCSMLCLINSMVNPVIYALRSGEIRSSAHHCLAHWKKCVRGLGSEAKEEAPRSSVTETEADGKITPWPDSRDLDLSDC

Sequence of Cannabinoid receptor (Homo sapiens) (P21554 whole entry, looked up): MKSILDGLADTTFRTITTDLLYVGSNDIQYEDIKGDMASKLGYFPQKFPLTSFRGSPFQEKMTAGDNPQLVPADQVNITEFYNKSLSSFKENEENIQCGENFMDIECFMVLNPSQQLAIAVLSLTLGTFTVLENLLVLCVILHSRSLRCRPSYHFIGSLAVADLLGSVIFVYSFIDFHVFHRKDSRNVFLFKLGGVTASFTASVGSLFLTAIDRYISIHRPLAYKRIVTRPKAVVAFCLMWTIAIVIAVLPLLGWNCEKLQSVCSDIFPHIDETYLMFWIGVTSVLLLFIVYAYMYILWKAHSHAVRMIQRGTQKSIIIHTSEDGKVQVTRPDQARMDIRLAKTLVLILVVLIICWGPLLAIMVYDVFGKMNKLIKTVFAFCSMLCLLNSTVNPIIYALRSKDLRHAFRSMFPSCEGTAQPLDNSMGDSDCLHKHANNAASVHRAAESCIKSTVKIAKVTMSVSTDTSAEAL
Sequence of Cannabinoid receptor (Homo sapiens) (P34972 whole entry, looked up): as the sequence (P34972 whole entry) above

| SMILES | Selectivity [1] | Ki (Cannabinoid receptor 2) [nM] |
| --- | --- | --- |
| C[C@H](NS(C)(=O)=O)c1ccc(S(=O)(=O)c2ccc(Cl)cc2S(=O)(=O)c2ccccc2Cl)cc1 | 1780 | 6 |
| CC(NS(C)(=O)=O)c1ccc(C(=O)c2ccc(Cl)cc2S(=O)(=O)c2ccc(Cl)cc2)cc1 (stereo not given) | 16 | 410 |
| COc1ccc(S(=O)(=O)c2ccc([C@H](C)NS(C)(=O)=O)cc2)c(S(=O)(=O)c2ccc(Cl)cc2)c1 | 1150 | 0.9 |
| C[C@H](NS(C)(=O)=O)c1ccc(S(=O)(=O)c2ccc(Cl)cc2Nc2ccc(Cl)cc2)cc1 | 5 | 278 |
| C[C@H](NS(C)(=O)=O)c1ccc(S(=O)(=O)c2ccc(C(F)(F)F)cc2S(=O)(=O)c2ccccc2F)cc1 | 3550 | 0.9 |
| C[C@H](NS(C)(=O)=O)c1ccc(S(=O)(=O)c2ccccc2S(=O)(=O)c2ccc(Cl)cc2)cc1 | 127 | 58 |
| C[C@H](NS(C)(=O)=O)c1ccc(S(=O)(=O)c2ccc(Cl)cc2C(C)(O)c2ccccc2F)cc1 (stereo not given in full) | 111 | 77 |
| C[C@H](NS(C)(=O)=O)c1ccc(S(=O)(=O)c2ccc(Cl)cc2C(C)(O)c2ccc(Cl)cc2)cc1 (stereo not given in full) | 25 | 230 |
| C[C@H](NS(C)(=O)=O)c1ccc(Cc2ccc(C(F)(F)F)cc2S(=O)(=O)c2c(F)cccc2F)cc1 | 584 | 1.8 |
| C[C@H](NS(C)(=O)=O)c1ccc(Cc2ccc(C(F)(F)F)cc2S(=O)(=O)c2cccc(F)c2)cc1 | 438 | 3.5 |
| C[C@H](NS(C)(=O)=O)c1ccc(Cc2ccc(OC(F)(F)F)cc2S(=O)(=O)c2ccccc2OC(F)(F)F)cc1 | 60 | 16 |
| COc1ccc(S(=O)(=O)c2cc(OC)ccc2Cc2ccc([C@H](C)NS(C)(=O)=O)cc2)cc1 | 1300 | 0.6 |
| C[C@H](NS(C)(=O)=O)c1ccc(S(=O)(=O)c2ccc(Cl)cc2Cc2ccc(Cl)cc2)cc1 | 11 | 164 |
| C[C@H](NS(C)(=O)=O)c1ccc(Cc2ccc(Cl)cc2S(=O)(=O)c2ccc(Cl)cc2)cc1 | 188 | 6.7 |
| C[C@H](NS(C)(=O)=O)c1ccc(S(=O)(=O)c2ccc(Cl)cc2S(=O)(=O)c2ccccc2OC(F)(F)F)cc1 | 134 | 128 |
| C=C(c1ccccc1F)c1cc(Cl)ccc1S(=O)(=O)c1ccc([C@H](C)NS(C)(=O)=O)cc1 | 17 | 247 |
| CO/N=C(\c1ccc([C@H](C)NS(C)(=O)=O)cc1)c1ccc(Cl)cc1S(=O)(=O)c1ccc(Cl)cc1 | 5 | 406 |
| Cc1ccc(S(=O)(=O)c2ccc([C@H](C)NS(C)(=O)=O)cc2)c(S(=O)(=O)c2ccccc2F)c1 | 1740 | 0.5 |
| COc1ccc(S(=O)(=O)c2cc(OC)ccc2S(=O)(=O)c2ccc(C(C)(C)NS(C)(=O)=O)cc2)cc1 | 282 | 6 |
| C[C@H](NS(C)(=O)=O)c1ccc(Cc2ccc(OC(F)(F)F)cc2S(=O)(=O)c2cccc(C(F)(F)F)c2)cc1 | 27 | 35 |

| SMILES | Selectivity [1] | Ki (Cannabinoid receptor 2) [nM] |
| --- | --- | --- |
| C[C@H](NS(C)(=O)=O)c1ccc(S(=O)(=O)c2ccc(Cl)cc2Oc2ccc(Cl)cc2)cc1 | 3 | 983 |
| COc1ccc(S(=O)(=O)c2cc(OC)ccc2S(=O)(=O)c2ccc(CNS(C)(=O)=O)cc2)cc1 | 2170 | 1.3 |
| CCC(c1ccc([C@H](C)NS(C)(=O)=O)cc1)c1ccc(Cl)cc1S(=O)(=O)c1ccc(Cl)cc1 (stereo not given in full) | 48 | 76 |
| C[C@H](NS(C)(=O)=O)c1ccc(S(=O)(=O)c2ccc(C(F)(F)F)cc2S(=O)(=O)c2ccc(Cl)cc2)cc1 | 558 | 8 |
| COc1ccc(S(=O)(=O)c2cc(OC)ccc2S(=O)(=O)c2ccc([C@@H](C)NS(C)(=O)=O)cc2)cc1 | 105 | 30 |
| C[C@H](NS(C)(=O)=O)c1ccc(S(=O)(=O)c2ccc(Cl)cc2S(=O)(=O)c2cccc(Cl)c2)cc1 | 238 | 23 |
| C[C@H](NS(C)(=O)=O)c1ccc(Cc2ccc(OC(F)(F)F)cc2S(=O)(=O)c2ccccc2F)cc1 | 1180 | 0.4 |
| C[C@H](NS(C)(=O)=O)c1ccc(S(=O)(=O)c2ccc(Cl)cc2S(=O)(=O)c2ccc(Cl)cc2)cc1 | 687 | 10 |
| C[C@H](NS(C)(=O)=O)c1ccc(S(=O)(=O)c2ccc(Cl)cc2S(=O)(=O)c2ccccc2F)cc1 | 4390 | 1 |
| C[C@H](NS(C)(=O)=O)c1ccc(S(=O)(=O)c2ccc(O)cc2S(=O)(=O)c2ccc(Cl)cc2)cc1 | 2320 | 13 |
| C[C@H](NS(C)(=O)=O)c1ccc(Cc2ccc(C(F)(F)F)cc2S(=O)(=O)c2ccccc2F)cc1 | 674 | 1 |
| C=C(c1ccc([C@H](C)NS(C)(=O)=O)cc1)c1ccc(OC(F)(F)F)cc1S(=O)(=O)c1ccccc1F | 19 | 86 |
| COc1ccc(S(=O)(=O)c2ccc([C@H](C)NS(C)(=O)=O)cc2)c(S(=O)(=O)c2ccccc2)c1 | 2480 | 0.6 |
| COc1ccc(S(=O)(=O)c2cc(OC)ccc2C(=O)c2ccc([C@H](C)NS(C)(=O)=O)cc2)cc1 | 108 | 44 |
| CC(NS(C)(=O)=O)c1ccc(C(=O)c2ccc(OC(F)(F)F)cc2S(=O)(=O)c2ccccc2F)cc1 (stereo not given) | 28 | 179 |
| C[C@H](NS(C)(=O)=O)c1ccc(S(=O)(=O)c2ccc(Cl)cc2C(=O)c2ccc(Cl)cc2)cc1 | 284 | 192 |
| COc1ccc(S(=O)(=O)c2cc(OC)ccc2S(=O)(=O)c2ccc([C@H](C)NS(C)(=O)=O)cc2)cc1 | 2260 | 0.4 |
| C[C@H](NS(C)(=O)=O)c1ccc(S(=O)(=O)c2ccc(Cl)cc2S(=O)(=O)c2ccccc2)cc1 | 1940 | 2 |
| C[C@H](NS(C)(=O)=O)c1ccc(S(=O)(=O)c2ccccc2S(=O)(=O)c2ccccc2F)cc1 | 1450 | 9 |
| C[C@H](NS(C)(=O)=O)c1ccc(S(=O)(=O)c2ccc(OC3CCCC3)cc2S(=O)(=O)c2ccc(Cl)cc2)cc1 | 11 | 232 |
